Results: paper PMC10529594, “Strasseriolides display in vitro and in vivo activity against trypanosomal parasites and cause morphological and size defects in Trypanosoma cruzi” (PLOS Neglected Tropical Diseases, 2023)
Several values for one entry are separate records, joined by “and”; a condition that tells them apart may be missing. Identical values can stand only once. Like-named read-outs stand apart in the source and are kept apart here.

Columns and labels:
[1] = system: T. cruzi Tulahuen C4 trypomastigotes; experiment: T. cruzi trypomastigote viability assay (resazurin fluorescence); type: cell-based, Trypanosoma cruzi; settings: Tulahuen C4, 72 hours at 37°C
Procedure: (§1) Tulahuen T. cruzi trypomastigotes were recovered 6 days post infection from the supernatant of harvested infected L6 cells cultures after 3 hours at 37°C. 90 μL of parasite culture at a density of 5 × 10^6 cells in RPMI 1640 media were dispensed into 96 Nunc flat bottom assay plates containing 10 μL of each compound.
In the fluorescence assay, plates were incubated for 24 and 48 hours after which 10 μL of the resazurin solution were added to each well. Plates were further incubated for 24 hours and fluorescence was measured at 550/590 nm using a Tecan Infinite 200 microplate reader. […] Final maximal DMSO percentage in the well was 0.1% and compound concentrations ranged from 0.2 to 100 μM.

[2] = system: T. cruzi trypomastigotes; experiment: T. cruzi trypomastigote viability / rate of action assay (CellTiter-Glo bioluminescence); type: cell-based, Trypanosoma cruzi; settings: for EC50: Trypanosoma cruzi; for EC90/EC50 / Hill slope: Trypomastigotes
Procedure: as §1
Parasite viability was assessed upon 24, 48 and 72 hour incubation at 37°C in 5% CO2 by adding 50 μL of CellTiter-Glo viability reagent to white 96-well microplates. After signal stabilization, bioluminescence was read. Compound concentrations ranged from 0.1 μM to 50 μM and final maximal DMSO percentage in the well was 0.05%. Results were normalized to […] control columns in each plate.

[3] = system: intracellular T. cruzi amastigotes; experiment: Rate of kill, intracellular T. cruzi amastigotes (CPRG, 96-well); type: cell-based, Trypanosoma cruzi; settings: for EC90/EC50 / Hill slope / EC50: Amastigotes; for Growth inhibition (%), individual replicates / inhibition at 50 µM: T. cruzi amastigotes, 50 µM; for inhibition at 50 µM / EC50: Trypanosoma cruzi
Procedure: For rate of kill experiments, in vitro activity against intracellular T. cruzi amastigotes was analyzed at early time points: 24, 48 and 72 hours. The standard colorimetric transgenic assay was established in a 96-well format, with serial dilutions of compounds and 0.05% as the final maximal DMSO percentage per well. In these experiments L6 host cells were included as negative controls and CPRG conversion was monitored at 585 nm using a Versamax microplate reader (Molecular devices).

[4] = system: T. cruzi epimastigotes; experiment: FACS analysis of T. cruzi epimastigotes (cell cycle, size and complexity); type: cell-based, Trypanosoma cruzi; settings: for % Cells G1, Average / % Cells G2/M, Average / % Cells S, Average / % Cells sub-G1, Average / % Cells G1, individual replicates / % Cells G2/M, individual replicates / % Cells S, individual replicates / % Cells post G2/M, individual replicates / % Cells sub-G1, individual replicates: 72-hour drug exposure, FACS with PI staining; for Foward Scatter (FSC) - Geometric Mean, single experiment / Foward Scatter (FSC) - Geometric Mean, Average / size reduction with respect to untreated parasites: 72 h
Procedure: FACS analysis was used to study cell cycle progression and cellular parameters such as size and complexity. 5 × 10^6 T. cruzi epimastigotes were harvested by centrifugation at 1,000×g and 4°C after 72 hours of incubation in a 6-well plate in the presence and in absence of test compounds. Pellets of cells were washed with 5 mL of PBS and fixed in a solution of 70% ice-cold ethanol/PBS at -20°C overnight. Cells were then collected by centrifugation, washed with PBS and stained with 40 μg/mL of propidium iodide in PBS containing 10 μg/mL of RNase A at 37°C for 30 minutes. Fluorescence was monitored with a Becton Dickinson FACSCalibur using BD CellQuest Pro version 4.0.2 software with a total of 10,000 events acquired for each sample. The different cell populations as well as mean cellular parameters were determined by FlowJo software.

[5] = system: transgenic Trypanosoma cruzi Brazil strain expressing firefly luciferase; experiment: In vivo efficacy, acute T. cruzi infection in BALB/c mice (luciferase imaging)
Procedure: In vivo experiments were performed at the Anti-infectives Screening Core Services facility of the New York University School of Medicine. The transgenic Trypanosoma cruzi Brazil strain expressing firefly luciferase was used. Groups of five female BALB/c mice were infected with 2 × 10^6 T. cruzi trypomastigotes. […] Quantification is based on luciferase activity of the parasites after i.p. injection of 150 mg/Kg D-luciferin potassium-salt in PBS. Luminescence is measured on the fifth day using an IVIS Lumina II imager.

[6] = system: Plasmodium berghei; set-up: method as in PMID 34865639; settings: Plasmodium berghei murine model; cited from earlier work

C/C1=C\[C@H](C)C(=O)C[C@@H](O)/C(C)=C/[C@H](C)C[C@@H](C)CC[C@@H]([C@@H](C)C(=O)O)OC(=O)[C@@H](C)C1 [Strasseriolide C, strasseriolide C]
EC50 ([1]; Trypanosoma cruzi, TULAHUEN, 72 h): 3.8 µM | EC50 [1]: 3.84 µM | RLU Average, trypomastigote viability ([2]; 24 h, 0.0976562 µM, untreated 165925): 163790 RLU | RLU Average, trypomastigote viability ([2]; 24 h, 0.195312 µM, untreated 165925): 163102 RLU | RLU Average, trypomastigote viability ([2]; 24 h, 0.390625 µM, untreated 165925): 158420 RLU | RLU Average, trypomastigote viability ([2]; 24 h, 0.78125 µM, untreated 165925): 147331 RLU | RLU Average, trypomastigote viability ([2]; 24 h, 1.5625 µM, untreated 165925): 130562 RLU | RLU Average, trypomastigote viability ([2]; 24 h, 3.125 µM, untreated 165925): 103284 RLU | RLU Average, trypomastigote viability ([2]; 24 h, 6.25 µM, untreated 165925): 45263 RLU | RLU Average, trypomastigote viability ([2]; 24 h, 12.5 µM, untreated 165925): 26648 RLU | RLU Average, trypomastigote viability ([2]; 24 h, 25 µM, untreated 165925): 23620 RLU | RLU Average, trypomastigote viability ([2]; 24 h, 50 µM, untreated 165925): 23277 RLU | RLU Average, trypomastigote viability ([2]; 48 h, 0.0976562 µM, untreated 141819): 140243 RLU | RLU Average, trypomastigote viability ([2]; 48 h, 0.195312 µM, untreated 141819): 138438 RLU | RLU Average, trypomastigote viability ([2]; 48 h, 0.390625 µM, untreated 141819): 137289 RLU | RLU Average, trypomastigote viability ([2]; 48 h, 0.78125 µM, untreated 141819): 133179 RLU | RLU Average, trypomastigote viability ([2]; 48 h, 1.5625 µM, untreated 141819): 131008 RLU | RLU Average, trypomastigote viability ([2]; 48 h, 3.125 µM, untreated 141819): 112009 RLU | RLU Average, trypomastigote viability ([2]; 48 h, 6.25 µM, untreated 141819): 31326 RLU | RLU Average, trypomastigote viability ([2]; 48 h, 12.5 µM, untreated 141819): 8227 RLU | RLU Average, trypomastigote viability ([2]; 48 h, 25 µM, untreated 141819): 5426 RLU | RLU Average, trypomastigote viability ([2]; 48 h, 50 µM, untreated 141819): 4626 RLU | RLU Average, trypomastigote viability ([2]; 72 h, 0.0976562 µM, untreated 100126): 97547 RLU | RLU Average, trypomastigote viability ([2]; 72 h, 0.195312 µM, untreated 100126): 99515 RLU | RLU Average, trypomastigote viability ([2]; 72 h, 0.390625 µM, untreated 100126): 99635 RLU | RLU Average, trypomastigote viability ([2]; 72 h, 0.78125 µM, untreated 100126): 98868 RLU | RLU Average, trypomastigote viability ([2]; 72 h, 1.5625 µM, untreated 100126): 97232 RLU | RLU Average, trypomastigote viability ([2]; 72 h, 3.125 µM, untreated 100126): 91895 RLU | RLU Average, trypomastigote viability ([2]; 72 h, 6.25 µM, untreated 100126): 17556 RLU | RLU Average, trypomastigote viability ([2]; 72 h, 12.5 µM, untreated 100126): 4224 RLU | RLU Average, trypomastigote viability ([2]; 72 h, 25 µM, untreated 100126): 2493 RLU | RLU Average, trypomastigote viability ([2]; 72 h, 50 µM, untreated 100126): 1583 RLU | EC50 ([2]; 24 h): 3.29 µM | EC50 ([2]; 48 h): 4.45 µM | EC50 ([2]; 72 h): 4.77 µM | EC90/EC50 ([2]; 24 h): 3.20 | Hill slope ([2]; 24 h): 2.11 | EC90/EC50 ([2]; 48 h): 1.72 | Hill slope ([2]; 48 h): 4.10 | Hill slope ([2]; 48 h, listed as C): 4.1 | EC90/EC50 ([2]; 48 h, listed as strasseriolide C): 1.7 | EC90/EC50 ([2]; 72 h): 1.42 | Hill slope ([2]; 72 h): 6.31 | Hill slope ([2]; 72 h, listed as C): 6.3 | EC90/EC50 ([2]; 72 h, listed as strasseriolide C): 1.4 | EC90/EC50 ([3]; 24 h): 3.78 | Hill slope ([3]; 24 h): 1.70 | EC90/EC50 ([3]; 48 h): 2.65 | Hill slope ([3]; 48 h): 2.31 | EC90/EC50 ([3]; 72 h): 2.43 | Hill slope ([3]; 72 h): 2.48 | Growth inhibition (%), individual replicates ([3]; 24 h, single replicates): 74.7423% | Growth inhibition (%), individual replicates ([3]; 48 h, single replicates): 94.7649% and 95.5652% | Growth inhibition (%), individual replicates ([3]; 72 h, single replicates): 98.6747% and 99.1566% | inhibition at 50 µM ([3]; 24 h, 24 h, average, read-out: Growth inhibition (%), Average): 73.4% | inhibition at 50 µM ([3]; 24 h, 24 h, single replicates, read-out: Growth inhibition (%), individual replicates): 72.7% | inhibition at 50 µM ([3]; 48 h, 48 h, average, read-out: Growth inhibition (%), Average): 94.9% | inhibition at 50 µM ([3]; 48 h, 48 h, single replicates, read-out: Growth inhibition (%), individual replicates): 94.2% | inhibition at 50 µM ([3]; 72 h, 72 h, average, read-out: Growth inhibition (%), Average): 98.8% | inhibition at 50 µM ([3]; 72 h, 72 h, single replicates, read-out: Growth inhibition (%), individual replicates): 98.6% | EC50 ([3]; 24 h): 10.3 µM | EC50 ([3]; 48 h): 5.25 µM | EC50 ([3]; 72 h): 5.3 µM | % Cells G1, Average ([4]; EC30, average): 50.2633% | % Cells G2/M, Average ([4]; EC30, average): 31.3463% | % Cells S, Average ([4]; EC30, average): 16.5971% | % Cells sub-G1, Average ([4]; EC30, average): 3.151% | % Cells G1, individual replicates ([4]; EC30, single replicates): 52.1473% and 48.3792% | % Cells G2/M, individual replicates ([4]; EC30, single replicates): 31.009% and 31.6835% | % Cells S, individual replicates ([4]; EC30, single replicates): 14.5117% and 18.6825% | % Cells post G2/M, individual replicates ([4]; EC30, single replicates): -0.5484% and -2.167% | % Cells sub-G1, individual replicates ([4]; EC30, single replicates): 2.8804% and 3.422% | % Cells G1, Average ([4]; EC70, average): 52.4319% | % Cells G2/M, Average ([4]; EC70, average): 31.1794% | % Cells S, Average ([4]; EC70, average): 14.7538% | % Cells sub-G1, Average ([4]; EC70, average): 3.07% | % Cells G1, individual replicates ([4]; EC70, single replicates): 54.5779% and 50.2858% | % Cells G2/M, individual replicates ([4]; EC70, single replicates): 30.5655% and 31.7933% | % Cells S, individual replicates ([4]; EC70, single replicates): 10.63% and 18.8776% | % Cells post G2/M, individual replicates ([4]; EC70, single replicates): -0.9732% and -1.896% | % Cells sub-G1, individual replicates ([4]; EC70, single replicates): 5.2% and 0.9392% | Foward Scatter (FSC) - Geometric Mean, single experiment ([4]; EC30): 81.2 and 80.4 | Foward Scatter (FSC) - Geometric Mean, Average ([4]; EC30, control 96.65): 80.8 | Foward Scatter (FSC) - Geometric Mean, single experiment ([4]; EC70): 72.5 and 74.3 | Foward Scatter (FSC) - Geometric Mean, Average ([4]; EC70, control 96.65): 73.4 | size reduction with respect to untreated parasites ([4]; at EC30): 16% | size reduction with respect to untreated parasites ([4]; at EC70): 22% | Total counts, individual mouse ([5]; 50 mg/kg i.p. 5 days from 72 h post-infection, 50 mg/kg): 1820000 and 5150000 and 2580000 and 6540000 and 3640000 | Total counts, Average ([5]; 50 mg/kg i.p. 5 days from 72 h post-infection, vehicle average 8050000): 3940000 | parasitaemia in vivo ([5]; acute infection model, 50 mg/Kg i.p., 5 days): lowers parasitaemia | in vivo antiprotozoal activity [6]: exhibit in vivo antiprotozoal activity
